In PMC6273267 (Molecules, 2016):
Like-named read-outs stand apart in the source and are kept apart here.

What was measured:
BuChE (E.C. 3.1.1.8) = molecular target: T1, BuChE (E.C. 3.1.1.8) (Equus caballus, UniProt P81908); test: biochemical; conditions: means ± SEM of three experiments; pH 8.0, 37 °C, 15 min incubation; read-out: BuChE Inhibition (IC50)
T1 construct: purchased Sigma-Aldrich (St. Louis, MO, USA); host or cells: equine serum
Experimental: (§1) The inhibitory activity of the synthesized graveoline analogs on cholinesterase in vitro was studied using the Ellman method.
(§2) Stock solutions of all graveoline analogs (10 mM) were prepared using DMSO and stored at −80 °C. Further dilutions to working concentrations were made with double-distilled deionized water. AChE (E.C. 3.1.1.7, obtained from electric eel), BuChE (E.C. 3.1.1.8, obtained from equine serum), 5,5′-dithiobis-(2-nitrobenzoic acid) (Ellman’s reagent, DTNB), acetylthiocholine chloride (ATC), butylthiocholine chloride, thioflavin T, and tarcine hydrochloride were purchased from Sigma-Aldrich (St. Louis, MO, USA). Aβ42 was purchased from Millipore (Billerica, MA, USA). 3-(4,5-Dimethylthiazol-2-yl)-2,5-diphenyltetrazolium bromide (MTT) was purchased formal Aladdin (Shanghai, China). The SH-SY5Y cell line was obtained from the Animal experimental center of Sun Yat-sen University.
(§3) The solutions of the enzyme were prepared to achieve 2.0 units/mL in 2 mL aliquots. The experiment system contained phosphate buffer, pH 8.0 (1 mL), 50 μL of 0.01 M substrate (ATC), 50 μL of 0.01 M DTNB, and 10 μL of enzyme. The substrate was added into the experiment system containing the DTNB, buffer, and enzyme with inhibitors after 15 min of incubation. […] Calculations were conducted according to the assay of Ellman et al.. The in vitro BuChE assay was performed using the method described above.

AChE (E.C. 3.1.1.7) [1] = molecular target: T2, AChE (E.C. 3.1.1.7) (Electrophorus electricus, UniProt O42275); test: biochemical; conditions: for IC50: means ± SEM of three experiments, pH 8.0, 37 °C, 15 min incubation, read-out: AChE Inhibition (IC50); for Selectivity Index: Selectivity Index = IC50 (BuChE)/IC50 (AChE)
T2 construct: purchased Sigma-Aldrich (St. Louis, MO, USA)
T2 sequence (O42275 24-633): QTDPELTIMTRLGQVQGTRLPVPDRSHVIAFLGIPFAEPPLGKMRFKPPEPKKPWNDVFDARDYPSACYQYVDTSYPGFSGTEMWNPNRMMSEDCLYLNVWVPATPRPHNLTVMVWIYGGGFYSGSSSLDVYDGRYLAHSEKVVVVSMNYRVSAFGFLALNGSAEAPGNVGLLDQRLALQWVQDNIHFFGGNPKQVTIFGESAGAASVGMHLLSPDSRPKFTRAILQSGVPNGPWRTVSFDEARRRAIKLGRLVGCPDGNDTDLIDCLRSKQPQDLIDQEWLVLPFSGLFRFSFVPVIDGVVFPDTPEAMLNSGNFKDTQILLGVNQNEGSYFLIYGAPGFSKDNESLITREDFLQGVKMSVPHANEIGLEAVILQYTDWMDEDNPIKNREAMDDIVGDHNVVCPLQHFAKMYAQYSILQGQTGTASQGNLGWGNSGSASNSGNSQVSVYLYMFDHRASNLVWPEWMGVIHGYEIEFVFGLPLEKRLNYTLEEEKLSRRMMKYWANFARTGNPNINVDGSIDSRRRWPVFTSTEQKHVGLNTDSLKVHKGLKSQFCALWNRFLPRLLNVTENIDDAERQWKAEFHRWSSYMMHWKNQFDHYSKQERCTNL
Experimental: as §1, §2, §3

SH-SY5Y cells = test: Neurocyte toxicity test in vitro (MTT method); assay type: cell-based; conditions: 40 μM, 48 h
Experimental: Thus, we used the methyl thiazolyl tetrazolium (MTT) method to perform a neurocyte (SH-SY5Y) toxicity test in vitro. […] However, cell viability was greatly influenced at 20 and 40 μM concentrations and the inhibition rates were more than 90%. […] However, compared with the cholinesterase activity at the nanomole level, this level of cytotoxicity is acceptable. […]
Figure 5 Inhibition for SH-SY5Y of compounds 4a–4c, 5a–5c, 6a–6b and curcumin at different concentrations.
The SH-SY5Y cell line was seeded on 96-well plates at a density of 1.0 × 10^4 cells/well. After overnight incubation, the cells were treated with various concentrations (0.1, 1, 20, and 40 μM) of graveoline derivatives for 48 h. Subsequently, 10 μL of 5 mg/mL MTT solution was added to each well and further incubated for 4 h at 37 °C. The solution was carefully removed, and each well was treated with dimethyl sulfoxide (DMSO) (200 μL for each well). The optical density of the wells was then read on the microplate reader at 490 nm. The parallel tests of all drug doses were performed in triplicate.

AChE (E.C. 3.1.1.7) [2] = molecular target: T2, AChE (E.C. 3.1.1.7); test: biochemical; conditions: stated in the introduction, early efforts
AChE = molecular target: T3, AChE (Electrophorus electricus, UniProt O42275); test: Kinetic characterization of AChE inhibition (Lineweaver-Burk plot); assay type: biochemical, electric eel; conditions: lines intersect in the second quadrant
T3 construct: purchased Sigma-Aldrich (St. Louis, MO, USA)
T3 sequence (O42275 24-633): as above
Experimental: When the small-molecule ligand was combined with the AChE active center (CAS), the type of inhibition of the enzyme was classified as competitive inhibition; by contrast, when the small-molecule ligand was acted on the PAS, the enzymatic inhibition was classified as non-competitive inhibition. […] This conclusion was verified by subsequent molecular docking experiments.
Figure 2 Lineweaver-Burk plot for the inhibition of AChE by 5c.
The kinetic characterization of AChE was performed using the reported method. Three concentrations ([…]) of the substrate were mixed in 1 mL 0.1 M KH2PO4/K2HPO4 buffer (pH 8.0) containing 10 μL AChE, 50 μL DTNB, and 50 μL substrate. The test compound was added into the assay solution and was pre-incubated with the AChE at 37 °C for 15 min followed by addition of the substrate. The kinetic characterization of the AChE-catalyzed ATC hydrolysis was performed spectrometrically at 412 nm. A parallel control with no inhibitor in the mixture allowed adjusting activities to be measured at various times.

[3] = test system: AChE-induced Aβ42 aggregation; test: Thioflavin T-based fluorometric assay of AChE-induced Aβ42 aggregation; assay type: biochemical; conditions: 5, 10, 20, 40 and 80 μM; 48 h at 37 °C; effect related to compound concentration
Experimental: To explore the combining effect of graveoline analogs on the AChE functional site PAS, compound 5c was chosen to study the inhibitory activity of AChE-induced Aβ aggregation using thioflavin T-based fluorometric assay. […] The inhibitory effect of 5c was related to the compound concentration. […]
Figure 4 Determination of 5c inhibition potency on AChE-induced amyloid-β (Aβ)42 aggregation.
The self-mediated Aβ42 aggregation was evaluated through the thioflavin-T fluorescence assay. A mixture of 230 μM Aβ42 peptide, 2.30 μM AChE (Aβ42/AChE molar ratio 100:1), and the indicated concentrations of compound 5c (5, 10, 20 ,40 and 80 μM) were added to the phosphate buffer (pH 7.40, 0.01 M). After co-incubated in 37 °C for 48 h, thioflavin-T (5 μM in 50 mM glycine-NaOH buffer, pH 8.00) was added. Fluorescence was monitored with excitation at 450 nm (λex) and 485 nm (λem) by the Spectrofluorimeter LS55. The fluorescence intensity values reached at the plateau (around 300 s) were recorded after subtracting the background fluorescence. The solutions containing Aβ42, and Aβ42 plus HuAChE was checked as control. Each experiment was run in triplicate.

T1 sequence (P81908 whole entry): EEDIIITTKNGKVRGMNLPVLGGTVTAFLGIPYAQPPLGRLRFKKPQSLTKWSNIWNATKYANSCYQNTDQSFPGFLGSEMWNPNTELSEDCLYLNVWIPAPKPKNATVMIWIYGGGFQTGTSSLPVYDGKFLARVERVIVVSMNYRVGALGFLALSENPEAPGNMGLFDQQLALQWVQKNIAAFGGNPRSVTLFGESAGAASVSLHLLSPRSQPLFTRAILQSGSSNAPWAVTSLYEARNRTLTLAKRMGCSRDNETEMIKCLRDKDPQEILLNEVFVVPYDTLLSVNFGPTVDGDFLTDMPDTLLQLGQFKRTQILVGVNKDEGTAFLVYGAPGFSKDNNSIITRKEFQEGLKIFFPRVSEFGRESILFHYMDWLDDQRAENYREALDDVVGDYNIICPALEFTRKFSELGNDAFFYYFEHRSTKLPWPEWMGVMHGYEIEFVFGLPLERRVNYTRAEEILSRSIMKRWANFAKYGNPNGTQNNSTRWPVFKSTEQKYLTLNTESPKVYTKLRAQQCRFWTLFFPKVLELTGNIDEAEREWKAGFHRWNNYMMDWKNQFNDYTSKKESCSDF

| Structure (SMILES) | IC50 (BuChE (E.C. 3.1.1.8)) [nM] | IC50 (AChE (E.C. 3.1.1.7) [1]) [nM] | neurocyte inhibition rate (SH-SY5Y cells) [%] | Selectivity Index (AChE (E.C. 3.1.1.7) [1]) | IC50 (AChE (E.C. 3.1.1.7) [2]) [µM] | type of inhibition of AChE (AChE) | inhibition of AChE-induced Aβ42 aggregation [3] |
| --- | --- | --- | --- | --- | --- | --- | --- |
| Cn1c(-c2ccc(CNCCN3CCCC3)cc2)cc(=O)c2ccccc21 [Compound 4b, 1-Methyl-2-(4-((2-(pyrrolidin-1-yl)ethylamino)methyl)phenyl)quinolin-4(1H)-one] | 2470 ± 85 | 10.2 ± 1.33 |  |  |  |  |  |
| COc1cc(/C=C/C(=O)CC(=O)/C=C/c2ccc(O)c(OC)c2)ccc1O [curcumin] |  |  | 57.3 |  |  |  |  |
| CN(C)CCNCc1ccc(-c2cc(=O)c3ccccc3n2C)cc1 [Compound 4a, 2-(4-((2-(Dimethylamino)ethylamino)methyl)phenyl)-1-methylquinolin-4(1H)-one] | 3520 ± 46 | 78.5 ± 1.76 |  | 45 |  |  |  |
| Cn1c(-c2ccc(CNCCCCN3CCCC3)cc2)cc(=O)c2ccccc21 [Compound 6b, 1-Methyl-2-(4-((4-(pyrrolidin-1-yl)butylamino)methyl)phenyl)quinolin-4(1H)-one] | 2430 ± 49 | 12.6 ± 0.57 |  | 193 |  |  |  |
| CN(C)CCCCNCc1ccc(-c2cc(=O)c3ccccc3n2C)cc1 [Compound 6a, 2-(4-((4-(Dimethylamino)butylamino)methyl)phenyl)-1-methylquinolin-4(1H)-one] | 3670 ± 39 | 35.5 ± 0.96 |  | 103 |  |  |  |
| Cc1ccc(-c2cc(=O)c3ccccc3n2C)cc1 [Compound 2, 1-Methyl-2-p-tolylquinolin-4(1H)-one] | 9306 ± 76 | 3650 ± 38 |  | 3 | 3.65 |  |  |
| Cn1c(-c2ccc(CNCCN3CCCCC3)cc2)cc(=O)c2ccccc21 [Compound 4c, 1-Methyl-2-(4-((2-(piperidin-1-yl)ethylamino)methyl)phenyl)quinolin-4(1H)-one] | 1540 ± 29 | 9.63 ± 0.76 |  | 160 |  |  |  |
| Cn1c(-c2ccc(CNCCCN3CCCCC3)cc2)cc(=O)c2ccccc21 [Compound 5c, 1-Methyl-2-(4-((3-(piperidin-1-yl)propylamino)methyl)phenyl)quinolin-4(1H)-one] | 1150 ± 31 | 2.36 ± 0.24 |  | 486 |  | mixed inhibition | significantly inhibit |
| Cn1c(-c2ccc(CNCCCN3CCCC3)cc2)cc(=O)c2ccccc21 [Compound 5b, 1-Methyl-2-(4-((3-(pyrrolidin-1-yl)propylamino)methyl)phenyl)quinolin-4(1H)-one] | 1890 ± 54 | 6.47 ± 0.15 |  | 291 |  |  |  |
| CN(C)CCCNCc1ccc(-c2cc(=O)c3ccccc3n2C)cc1 [Compound 5a, 2-(4-((3-(Dimethylamino)propylamino)methyl)phenyl)-1-methylquinolin-4(1H)-one] | 2680 ± 32 | 33.4 ± 0.78 |  | 80 |  |  |  |
